How the values were obtained:
[1] = system: human prostate (PC-3) cancer cell line; experiment: MTT cytotoxicity assay, PC-3; details: Homo sapiens; for inhibition at 100 µM: read-out: % Inhibition PC-3; for IC50: read-out: IC50 (Mean ± SEM) PC-3
Protocol: (§1) After 48 h incubation, the medium was aspirated and then 40 μL MTT salt (2.5 mg/mL) was added for a further 4 h. […] Doxorubicin was used as the positive control and 0.5% DMSO was used as the negative control.

[2] = system: human colon (Caco-2) cancer cell line; experiment: MTT cytotoxicity assay, Caco-2; details: for % Inhibition Caco-2: Caco-2, at 100 µM, MTT, (-) No activity detected; for IC50: read-out: IC50 (Mean ± SEM) Caco-2, Caco-2, MTT, three independent determinations
Protocol: as §1

[3] = system: human melanoma (A-375) cancer cell line; experiment: MTT cytotoxicity assay, A-375; details: Homo sapiens; for inhibition at 100 µM: A-375, read-out: % Inhibition A-375; for IC50: A-375, read-out: IC50 (Mean ± SEM) A-375
Protocol: as §1

[4] = system: human pancreatic (Paca-2) cancer cell line; experiment: MTT cytotoxicity assay, Paca-2; details: Homo sapiens; for inhibition at 100 µM: PaCa-2, read-out: % Inhibition Paca-2; for IC50: PaCa-2, read-out: IC50 (Mean ± SEM) Paca-2
Protocol: as §1

[5] = system: human melanoma (Mel-501) cancer cell line; experiment: MTT cytotoxicity assay, Mel-501; details: Homo sapiens; for inhibition at 100 µM: read-out: % Inhibition Mel-501; for IC50: read-out: IC50 (Mean ± SEM) Mel-501
Protocol: as §1

Row | Compound | inhibition at 100 µM [1] | IC50 [1] | melting point | % Inhibition Caco-2 [2] | IC50 [2] | inhibition at 100 µM [3] | IC50 [3] | inhibition at 100 µM [4] | IC50 [4] | inhibition at 100 µM [5] | IC50 [5]
1 | O=c1cc(-c2ccccc2)c2ccc(OCc3nnn([C@@H]4OC[C@@H](O)[C@H](O)[C@H]4O)n3)cc2o1 [Compound 8] | 98.1% | 48.2 ± 0.7 µM | 195 to 196 °C | 97% | 52.5 ± 1.3 µM | 95% | 13.9 ± 0.2 µM | 96.5% | 23.8 ± 0.9 µM | 98.1% | 19.4 ± 0.4 µM
2 | O=c1cc(-c2ccccc2)c2ccc(O)cc2o1 [Compound 1, 7-hydroxy-4-phenyl-2H-chromen-2-one] | 55.7% |  |  | 40.5% |  | 95% | 12.9 ± 0.6 µM | 79% | 62.3 ± 1.3 µM | 96.2% | 28.6 ± 0.4 µM
3 | O=c1cc(-c2ccccc2)c2ccc(OCc3nnn(CCOCCO)n3)cc2o1 [Compound 9, 7-((2-(2-(2-Hydroxyethoxy)ethyl)-2H-tetrazol-5-yl)methoxy)-4-phenyl-2H-chromen-2-one] | 95.9% | 47.4 ± 1.4 µM |  | 99.5% | 38.1 ± 0.4 µM | 84.1% | 15 ± 0.04 µM | 94.7% | 28.3 ± 0.7 µM | 97.7% | 30.2 ± 0.5 µM
4 | COc1cccc2c1C(=O)c1c(O)c3c(c(O)c1C2=O)C[C@@](O)(C(=O)CO)C[C@@H]3O[C@H]1C[C@H](N)[C@H](O)[C@H](C)O1 [Doxorubicin, reference compound] |  | 6.8 ± 0.2 µM |  |  | 3.7 ± 0.2 µM |  | 4.5 ± 0.07 µM |  | 19.4 ± 0.5 µM |  | 3.5 ± 0.3 µM
5 | O=c1cc(-c2ccccc2)c2ccc(OCc3cn([C@@H]4OC[C@@H](O)[C@H](O)[C@H]4O)nn3)cc2o1 [Compound 18, 4-Phenyl-7-((1-(β-D-Xylopyranosyl)-1H-1,2,3-triazol-4-yl)methoxy)-2H-chromen-2-one] | 91.4% | 37.6 ± 0.4 µM | 177 to 178 °C | 99.4% | 61.9 ± 1.3 µM | 97.9% | 8.5 ± 0.3 µM | 96.9% | 36.4 ± 1.2 µM | 98.5% | 10 ± 0.1 µM
6 | O=c1cc(-c2ccccc2)c2ccc(OCc3nn[nH]n3)cc2o1 [Compound 3, 7-((2H-Tetrazol-5-yl)methoxy)-4-phenyl-2H-chromen-2-one] | 12.2% |  | 219 to 221 °C |  |  | 55.3% |  | 55.6% |  | 48.4% | 
7 | O=c1cc(-c2ccccc2)c2ccc(OCc3nnn([C@@H]4O[C@H](CO)[C@H](O)[C@H](O)[C@H]4O)n3)cc2o1 [Compound 7] | 0% |  | 204 to 205 °C |  |  | 13.8% |  | 21.3% |  | 22.3% | 
8 | N#CCOc1ccc2c(-c3ccccc3)cc(=O)oc2c1 [Compound 2, 2-((2-Oxo-4-phenyl-2H-chromen-7-yl)oxy)acetonitrile] | 10.5% |  | 183 to 184 °C |  |  | 6.5% |  | 44.1% |  | 35.6% | 
9 | CC(=O)OC[C@H]1O[C@@H](n2nnc(COc3ccc4c(-c5ccccc5)cc(=O)oc4c3)n2)[C@H](OC(C)=O)[C@@H](OC(C)=O)[C@H]1OC(C)=O [Compound 5, 4-Phenyl-7-((1-(2,3,4,6-tetra-O-actyl-β-D-galactopyranosyl)-2H-tetrazol-5-yl)methoxy)-2H-chromen-2-one] | 15% |  | 122 to 124 °C |  |  | 23.1% |  | 56.9% |  | 68.4% | 72.1 ± 1.2 µM

Reference: PMC9000887, “Novel 1,2,3-Triazole-Coumarin Hybrid Glycosides and Their Tetrazolyl Analogues: Design, Anticancer Evaluation and Molecular Docking Targeting EGFR, VEGFR-2 and CDK-2” (Molecules, 2022)
